Assay results published in publication PMC7801683 (2021).

What was measured:
[1] = tested on: GGA/AGA internal loop RNA duplex (RNA, mismatch bulge abasic) GUACUGGAACAUG/CAUGUAGAAGUAC; assay: UV melting; conditions: 100 mM NaCl; 10 mM sodium cacodylate pH 7.0; 20 µM compound, 4 µM RNA
[2] = tested on: r(UGGAA)9 (RNA, repeat) UGGAAUGGAAUGGAAUGGAAUGGAAUGGAAUGGAAUGGAAUGGAA; assay: EMSA; conditions: 100 mM NaCl; 10 mM sodium cacodylate pH 7.0, room temperature; 2 µM compound
[3] = tested on: r(UGGAA)9 (RNA, repeat) UGGAAUGGAAUGGAAUGGAAUGGAAUGGAAUGGAAUGGAAUGGAA; assay: UV melting; conditions: 100 mM NaCl; 10 mM sodium cacodylate pH 7.0; 20 µM compound, 2 µM RNA; Tm 73.7 °C with NCD, none without
[4] = tested on: GGA/GGA internal loop RNA duplex (UGGAA/UGGAA pentad) (RNA, mismatch bulge abasic) GUACUGGAACAUG/CAUGUGGAAGUAC; assay: UV melting; conditions: 100 mM NaCl; 10 mM sodium cacodylate pH 7.0; 20 µM compound, 4 µM RNA
[5] = tested on: SCA31 hpRNA (RNA, hairpin) GUACUGGAACAUGUUUCAUGUGGAAGUAC; assay: ESI-TOF MS; conditions: 100 mM ammonium acetate; 50% methanol; 10 µM RNA, 40 µM compound
[6] = tested on: SCA31 hpRNA (RNA, hairpin) GUACUGGAACAUGUUUCAUGUGGAAGUAC; assay: ITC; conditions: 100 mM NaCl; 10 mM sodium cacodylate pH 7.0, 25 °C; apparent; single set of identical sites
[7] = tested on: 5'-biotin-TEG r(UGGAA)9 (RNA, repeat) UGGAAUGGAAUGGAAUGGAAUGGAAUGGAAUGGAAUGGAAUGGAA; assay: SPR; conditions: 150 mM NaCl; 10 mM HEPES pH 7.4, 3 mM EDTA, 0.05% P20; 500 nM compound
[8] = tested on: SCA31 hpRNA (RNA, hairpin) GUACUGGAACAUGUUUCAUGUGGAAGUAC; assay: NMR solution structure; conditions: 100 mM NaCl; 20 mM sodium phosphate pH 6.9, 288 K
[9] = tested on: r(UAAAA)9 (RNA, repeat) UAAAAUAAAAUAAAAUAAAAUAAAAUAAAAUAAAAUAAAAUAAAA; assay: UV melting; conditions: 100 mM NaCl; 10 mM sodium cacodylate pH 7.0; 20 µM compound, 2 µM RNA

- ΔTm [1]: 5.2 °C
- binding [2]: yes
- binding [3]: yes
- Tm [4]: 21.5 °C
- binding [5]: yes
- Kd(app) [6]: 32 nM
- binding [7]: yes
- binding [8]: yes
- binding [9]: no
Structure (SMILES): Cc1ccc2ccc(NC(=O)OCCCNCCCOC(=O)Nc3ccc4ccc(C)nc4n3)nc2n1
